Measured values reported in ChEMBL document CHEMBL1201862, “PubChem BioAssay data set” (2004).
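Values below derive from 48-hour exposures of cells grown in 96-well plates, with endpoints linearly interpolated between the two concentrations bracketing the appropriate inhibition level. GI50: concentration for 50% inhibition of growth.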 The source made the active and inactive calls. Rule as the data show it: active = GI50 up to about 1.1 µM and inactive = higher.

What was measured:
Test in all cases: DTP human tumour cell line panel, 48 h
[1] = tested on: BT-549
[2] = tested on: HT-29
[3] = tested on: Hs-578T
[4] = tested on: M14
[5] = tested on: MCF7
[6] = tested on: MDA-N
[7] = tested on: MOLT-4
[8] = tested on: NCI-H226
[9] = tested on: NCI-H460
[10] = tested on: NCI-H522
[11] = tested on: OVCAR-3
[12] = tested on: OVCAR-4
[13] = tested on: OVCAR-5
[14] = tested on: OVCAR-8
[15] = tested on: RXF 393
[16] = tested on: SNB-19
[17] = tested on: T47D
[18] = tested on: UACC-257
[19] = tested on: UO-31
[20] = tested on: SF-539

| Structure (SMILES) | GI50 [1] | GI50 [2] | GI50 [3] | GI50 [4] | GI50 [5] | GI50 [6] | GI50 [7] | GI50 [8] | GI50 [9] | GI50 [10] | GI50 [11] | GI50 [12] | GI50 [13] | GI50 [14] | GI50 [15] | GI50 [16] | GI50 [17] | GI50 [18] | GI50 [19] | GI50 [20] |
| --- | --- | --- | --- | --- | --- | --- | --- | --- | --- | --- | --- | --- | --- | --- | --- | --- | --- | --- | --- | --- |
| CC1=NN(c2cccc(Cl)c2)C2(C1)C(Cl)C(=O)N2c1nc2ccccc2s1 (centres undefined) | 27.8 µM (inactive) | 33.6 µM (inactive) | 45.2 µM (inactive) | 22.5 µM (inactive) | 32.1 µM (inactive) | 29.2 µM (inactive) | 14.5 µM (inactive) | 14.2 µM (inactive) | 36.6 µM (inactive) | 21.8 µM (inactive) | 20.5 µM (inactive) | 34.7 µM (inactive) | 44.4 µM (inactive) | 32.5 µM (inactive) | 27.9 µM (inactive) | 28.6 µM (inactive) | 26.2 µM (inactive) | 42.1 µM (inactive) | 19.3 µM (inactive) |  |
| Cc1cc(-c2nc3ccccc3s2)ccc1NC(=O)[C@@H](N)CCCCN | 10.1 µM (inactive) | 7.16 µM (inactive) | 18.5 µM (inactive) | 2.47 µM (inactive) | < 0.0301 µM (active) | 5.04 µM (inactive) | 6.58 µM (inactive) | 2.24 µM (inactive) | 2.22 µM (inactive) | 6.75 µM (inactive) | 12.9 µM (inactive) | 5.87 µM (inactive) | 12.5 µM (inactive) | 6.78 µM (inactive) | 3.89 µM (inactive) | 12 µM (inactive) | < 0.0247 µM (active) | 18.4 µM (inactive) | 6.71 µM (inactive) |  |
| Clc1ccc2c(c1)CC1C[N+]3=C(CCCC3)C1=C2 (centres undefined) | 55.5 µM (inactive) | 36.6 µM (inactive) | > 100 µM (inactive) | 53.8 µM (inactive) | 61.1 µM (inactive) | > 100 µM (inactive) | > 100 µM (inactive) | 76.6 µM (inactive) | 40.1 µM (inactive) | 47.4 µM (inactive) | 34.4 µM (inactive) | 37.6 µM (inactive) | > 100 µM (inactive) | 60.7 µM (inactive) | > 100 µM (inactive) | 48.3 µM (inactive) | 51.3 µM (inactive) | 43.9 µM (inactive) | > 100 µM (inactive) |  |
| CCOC(=O)N/N=C(/N)c1cccc(Br)c1 | > 100 µM (inactive) | > 100 µM (inactive) | > 100 µM (inactive) | > 100 µM (inactive) | > 100 µM (inactive) | > 100 µM (inactive) | > 100 µM (inactive) |  | > 100 µM (inactive) | > 100 µM (inactive) | > 100 µM (inactive) | > 100 µM (inactive) | > 100 µM (inactive) | > 100 µM (inactive) | > 100 µM (inactive) | 78.9 µM (inactive) | > 100 µM (inactive) | > 100 µM (inactive) | 56.1 µM (inactive) | > 100 µM (inactive) |
| COc1cc(C)cc(C(=O)/C=C/c2ccccc2)c1O | 17.4 µM (inactive) | 18.3 µM (inactive) | 32.8 µM (inactive) | 16.6 µM (inactive) | 12.1 µM (inactive) | 23.7 µM (inactive) | 30.2 µM (inactive) | 24.2 µM (inactive) | 20.2 µM (inactive) | 17.9 µM (inactive) | 16.5 µM (inactive) | 20.2 µM (inactive) | 13.8 µM (inactive) | 19.2 µM (inactive) | 16.3 µM (inactive) | 16 µM (inactive) | 11.1 µM (inactive) | 16.7 µM (inactive) | 17.8 µM (inactive) |  |
| O=C(O)CC(Cc1ccccc1Cl)C(=O)O (centres undefined) | > 100 µM (inactive) | > 100 µM (inactive) | > 100 µM (inactive) | > 100 µM (inactive) | > 100 µM (inactive) | > 100 µM (inactive) | > 100 µM (inactive) | > 100 µM (inactive) | > 100 µM (inactive) | > 100 µM (inactive) | > 100 µM (inactive) | > 100 µM (inactive) | > 100 µM (inactive) | > 100 µM (inactive) | > 100 µM (inactive) | > 100 µM (inactive) | > 100 µM (inactive) | > 100 µM (inactive) | > 100 µM (inactive) |  |
